In brackets after ≈: the same amount, converted by molar mass. Activity calls are given as the source filed them. No cut-off for these calls is given here.
Columns and labels:
Cryptococcus neoformans [1] = test: Antifungal activity against Cryptococcus neoformans ATCC 90112 after 48 hrs by broth microdilution susceptibility assay; type: functional; conditions: ATCC 90112, 48 h
Neisseria gonorrhoeae [2] = test: Antimicrobial activity against Neisseria gonorrhoeae ATCC 49226 assessed clear zone of inhibition measured per disk by CLSI disk diffusion susceptibility assay; type: functional
MCF7 = test: Cytotoxicity against human MCF7 cells after 48 hrs by sulforhodamine B assay; type: functional
[3] = tested on: Stenotrophomonas maltophilia; test: Antimicrobial activity against Stenotrophomonas maltophilia ATCC 13637 assessed clear zone in inhibition per disk by CLSI disk diffusion susceptibility assay; type: functional
Micrococcus luteus [4] = test: Antimicrobial activity against Micrococcus luteus Presque Isle 456 by broth microdilution susceptibility assay; type: functional
A498 = test: Cytotoxicity against human A498 cells after 48 hrs by sulforhodamine B assay; type: functional
Cryptococcus neoformans [5] = test: Antifungal activity against Cryptococcus neoformans ATCC 90112 after 72 hrs by broth microdilution susceptibility assay; type: functional; conditions: ATCC 90112, 72 h
Neisseria gonorrhoeae [6] = test: Antimicrobial activity against Neisseria gonorrhoeae ATCC 49226 by broth microdilution susceptibility assay; type: functional
P388 = test: Cytotoxicity against mouse P388 cells after 48 hrs by sulforhodamine B assay; type: functional; conditions: for EC50: P388, 48 h, read-out: ED50 (the source's name)
KM-20L2 = test: Cytotoxicity against human KM20L2 cells after 48 hrs by sulforhodamine B assay; type: functional
Staphylococcus aureus [7] = test: Antimicrobial activity against Staphylococcus aureus ATCC 29213 by broth microdilution susceptibility assay; type: functional
Staphylococcus aureus [8] = test: Antimicrobial activity against Staphylococcus aureus ATCC 29213 assessed clear zone in inhibition per disk by CLSI disk diffusion susceptibility assay; type: functional
Enterobacter cloacae [9] = test: Antimicrobial activity against Enterobacter cloacae ATCC 13047 by broth microdilution susceptibility assay; type: functional
OVCAR-3 = test: Cytotoxicity against human OVCAR-3 cells after 48 hrs by sulforhodamine B assay; type: functional
Micrococcus luteus [10] = test: Antimicrobial activity against Micrococcus luteus Presque Isle 456 assessed clear zone in inhibition per disk by CLSI disk diffusion susceptibility assay; type: functional
Enterobacter cloacae [11] = test: Antimicrobial activity against Enterobacter cloacae ATCC 13047 assessed clear zone in inhibition per disk by CLSI disk diffusion susceptibility assay; type: functional
Neisseria gonorrhoeae [12] = test: Antimicrobial activity against Neisseria gonorrhoeae ATCC 49226 after 24 hrs by broth microdilution susceptibility assay; type: functional; conditions: ATCC 49226, 24 h
Escherichia coli [13] = test: Antimicrobial activity against Escherichia coli ATCC 25922 by broth microdilution susceptibility assay; type: functional
SF-295 = test: Cytotoxicity against human SF295 cells after 48 hrs by sulforhodamine B assay; type: functional
Candida albicans [14] = test: Antifungal activity against Candida albicans ATCC 90028 after 48 hrs by broth microdilution susceptibility assay; type: functional; conditions: ATCC 90028, 48 h
Streptococcus pneumoniae [15] = test: Antimicrobial activity against Streptococcus pneumoniae ATCC 6303 by broth microdilution susceptibility assay; type: functional
Candida albicans [16] = test: Antimicrobial activity against Candida albicans ATCC 90028 assessed clear zone in inhibition per disk by CLSI disk diffusion susceptibility assay; type: functional
NCI-H460 = test: Cytotoxicity against human NCI-H460 cells after 48 hrs by sulforhodamine B assay; type: functional
Escherichia coli [17] = test: Antimicrobial activity against Escherichia coli ATCC 25922 assessed clear zone in inhibition per disk by CLSI disk diffusion susceptibility assay; type: functional
SF-268 = test: Cytotoxicity against human SF268 cells after 48 hrs by sulforhodamine B assay; type: functional
Candida albicans [18] = test: Antifungal activity against Candida albicans ATCC 90028 after 24 hrs by broth microdilution susceptibility assay; type: functional; conditions: ATCC 90028, 24 h
Streptococcus pneumoniae [19] = test: Antimicrobial activity against Streptococcus pneumoniae ATCC 6303 assessed clear zone in inhibition per disk by CLSI disk diffusion susceptibility assay; type: functional
[20] = tested on: Stenotrophomonas maltophilia; test: Antimicrobial activity against Stenotrophomonas maltophilia ATCC 13637 by broth microdilution susceptibility assay; type: functional
Enterococcus faecalis [21] = test: Antimicrobial activity against Enterococcus faecalis ATCC 29212 by broth microdilution susceptibility assay; type: functional
Cryptococcus neoformans [22] = test: Antimicrobial activity against Cryptococcus neoformans ATCC 90112 assessed clear zone in inhibition per disk by CLSI disk diffusion susceptibility assay; type: functional
Enterococcus faecalis [23] = test: Antimicrobial activity against Enterococcus faecalis ATCC 29212 assessed clear zone in inhibition per disk by CLSI disk diffusion susceptibility assay; type: functional
DU-145 = test: Cytotoxicity against human DU145 cells after 48 hrs by sulforhodamine B assay; type: functional
SK-MEL-5 = test: Cytotoxicity against human SK-MEL-5 cells after 48 hrs by sulforhodamine B assay; type: functional
[24] = Inhibition of tubulin polymerization
BXPC-3 = test: Cytotoxicity against human BxPC3 cells after 48 hrs by sulforhodamine B assay; type: functional

SMILES | MFC (Cryptococcus neoformans [1]) [µg/mL] | MIC (Neisseria gonorrhoeae [2]) [µg] | GI50 (MCF7) | MIC [3] [µg] | MIC (Micrococcus luteus [4]) [µg/mL] | GI50 (A498) | MIC (Cryptococcus neoformans [5]) [µg/mL] | MIC (Neisseria gonorrhoeae [6]) [µg/mL] | MIC (Staphylococcus aureus [7]) [µg/mL] | MIC (Staphylococcus aureus [8]) [µg] | MIC (Enterobacter cloacae [9]) [µg/mL] | MIC (Micrococcus luteus [10]) [µg] | MIC (Enterobacter cloacae [11]) [µg] | MIC (Escherichia coli [13]) [µg/mL] | MIC (Candida albicans [14]) [µg/mL] | MIC (Streptococcus pneumoniae [15]) [µg/mL] | MIC (Candida albicans [16]) [µg] | MIC (Escherichia coli [17]) [µg] | GI50 (SF-268) | MIC (Streptococcus pneumoniae [19]) [µg] | also measured
COc1cc(/C=C/[N+](=O)[O-])ccc1O | 16 (≈ 82 µM) | 0.78 | inactive | 50 | > 64 | inactive | 16 (≈ 82 µM) | 4 (≈ 20.5 µM) | > 64 | 12.5 | > 64 | 50 | >100 | > 64 | 16 (≈ 82 µM) | > 64 | 6.25 | 6.25 | inactive | 3.12 | EC50 (P388): 0.18 µg/mL (≈ 0.922 µM); GI50 (KM-20L2; KM-20L2, 48 h): 1.1 µg/mL (≈ 5.64 µM); GI50 (OVCAR-3; OVCAR-3, 48 h): 0.48 µg/mL (≈ 2.46 µM); MBC (Neisseria gonorrhoeae [12]): 4 µg/mL (≈ 20.5 µM); GI50 (SF-295; SF-295, 48 h): 0.37 µg/mL (≈ 1.9 µM); GI50 (NCI-H460; NCI-H460, 48 h): 0.34 µg/mL (≈ 1.74 µM); MFC (Candida albicans [18]): 16 µg/mL (≈ 82 µM); MIC [20]: > 64 µg/mL; MIC (Enterococcus faecalis [21]): > 64 µg/mL; MIC (Cryptococcus neoformans [22]): 3.12 µg; MIC (Enterococcus faecalis [23]): 25 µg; GI50 (DU-145; DU-145, 48 h): 0.38 µg/mL (≈ 1.95 µM); GI50 (SK-MEL-5): inactive; IC50 [24]: 9.3 µM; GI50 (BXPC-3; BXPC-3, 48 h): 1.2 µg/mL (≈ 6.15 µM)
COc1cc(/C=C/[N+](=O)[O-])cc(OC)c1OC | 16 (≈ 66.9 µM) | 0.78 | inactive | >100 | > 64 | inactive | 16 (≈ 66.9 µM) | 4 (≈ 16.7 µM) | > 64 | 12.5 | > 64 | 25 | >100 | > 64 | 32 (≈ 134 µM) | > 64 | 3.12 | >100 | inactive | 3.12 | EC50 (P388): 1.1 µg/mL (≈ 4.6 µM); GI50 (KM-20L2; KM-20L2, 48 h): 1.3 µg/mL (≈ 5.43 µM); GI50 (OVCAR-3; OVCAR-3, 48 h): 0.42 µg/mL (≈ 1.76 µM); MBC (Neisseria gonorrhoeae [12]): 8 µg/mL (≈ 33.4 µM); GI50 (SF-295; SF-295, 48 h): 1.3 µg/mL (≈ 5.43 µM); GI50 (NCI-H460; NCI-H460, 48 h): 1.1 µg/mL (≈ 4.6 µM); MFC (Candida albicans [18]): 32 µg/mL (≈ 134 µM); MIC [20]: > 64 µg/mL; MIC (Enterococcus faecalis [21]): > 64 µg/mL; MIC (Cryptococcus neoformans [22]): 3.12 µg; MIC (Enterococcus faecalis [23]): 50 µg; GI50 (DU-145; DU-145, 48 h): 1 µg/mL (≈ 4.18 µM); GI50 (SK-MEL-5): inactive; IC50 [24]: 4.5 µM; GI50 (BXPC-3; BXPC-3, 48 h): 1.4 µg/mL (≈ 5.85 µM)
COc1cc(/C=C/[N+](=O)[O-])cc2c1OCO2 | > 64 | 1.56 | inactive | >100 | > 64 | inactive | 64 (≈ 287 µM) | > 64 | > 64 | >100 | > 64 | >100 | >100 | > 64 | > 64 | > 64 | 1.56 | >100 | inactive | >100 | ED50 (P388): inactive; GI50 (KM-20L2): inactive; GI50 (OVCAR-3): inactive; GI50 (SF-295): inactive; GI50 (NCI-H460): inactive; MIC [20]: > 64 µg/mL; MIC (Enterococcus faecalis [21]): > 64 µg/mL; MIC (Cryptococcus neoformans [22]): 3.12 µg; MIC (Enterococcus faecalis [23]): >100 µg; GI50 (DU-145): inactive; GI50 (SK-MEL-5): inactive; IC50 [24]: 5.6 µM; GI50 (BXPC-3): inactive

Source: ChEMBL document CHEMBL1152576, “E-Combretastatin and E-resveratrol structural modifications: antimicrobial and cancer cell growth inhibitory beta-E-nitrostyrenes” (Bioorg Med Chem, 2009)
